Source: US8735584B2 (Merck Patent GmbH, priority 2008, dated 2014)

Biological target: T1, GST-Aurora A (Homo sapiens, UniProt O14965)
T1 construct: N-terminal GST fusion with full length Aurora A (1-403 amino acids); purchased Carna Biosciences 05-101
T1 sequence (O14965 1-403): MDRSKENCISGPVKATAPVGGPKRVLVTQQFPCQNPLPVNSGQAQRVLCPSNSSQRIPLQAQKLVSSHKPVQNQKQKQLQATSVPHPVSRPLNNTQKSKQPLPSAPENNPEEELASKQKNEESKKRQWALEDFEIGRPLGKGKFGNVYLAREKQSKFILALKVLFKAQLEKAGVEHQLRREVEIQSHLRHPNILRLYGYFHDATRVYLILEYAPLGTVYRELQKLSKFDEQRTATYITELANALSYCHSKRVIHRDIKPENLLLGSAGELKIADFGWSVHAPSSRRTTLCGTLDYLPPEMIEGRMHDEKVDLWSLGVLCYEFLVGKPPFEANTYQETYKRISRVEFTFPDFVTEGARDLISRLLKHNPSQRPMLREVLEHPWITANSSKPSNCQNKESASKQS
Experiment: Aurora A IC50, Caliper LC3000 mobility shift assay
Assay type: biochemical
Settings: LC3000 method; 15 uM ATP (the KM value); read-out: Aurora Kinase A Activity (IC50)
Method: The Aurora assays described here are performed on two Caliper Life Sciences systems: the LC3000 and the Desktop Profiler. These provide data on enzyme activity via measurement of the relative amounts of phosphorylated or unphosphorylated fluorescently labelled substrate peptide at the end of an enzymatic reaction. These different states of peptide are resolved by applying a potential difference across the sample. The presence of the charged phosphate group on the product (as opposed to the substrate) causes a different peptide mobility between the two peptides. This is visualized by excitation of the fluorescent label on the substrate and product peptides and represented as peaks within the analysis software.
In order to measure inhibitor activity of Aurora A inhibitors in the Caliper Life Sciences LC3000, a TTP Mosquito liquid handling instrument is used to place 0.25 ul of the appropriate concentration of inhibitor in 100% DMSO (for a dose response curve calculation) into each well of a 384-well plate. To this reaction components are added to a final volume of 25 ul: • 0.067 ng/ul GST-Aurora A (Carna Biosciences 05-101. N-terminal GST fusion with full length Aurora A (1-403 amino acids), accession number NP 940835.1). • 15 uM ATP (Fluke, 02055) • 1 mM DTT (Sigma, D0632) • 1 mM MgCl2 (Sigma, M1028) • 1 uM substrate peptide (sequence FITC-LRRASLG-(CONH2), synthesized by Tufts Peptide Synthesis service. • 100 mM HEPES pH 7.5 (Calbiochem, 391338) • 0.015% Brij-35 (Sigma, B4184)
The reaction is incubated for 90 min at 25 C, and then stopped by the addition of 70 ul of Stop buffer (100 mM HEPES pH 7.5, 0.015% Brij-35, 10 mM EDTA (Sigma, E7889)).
The plate is read on a Caliper LC3000 in an Off-Chip mobility shift assay format, using the following parameters for a 12-sipper chip: screening pressure—1.8 psi, upstream voltage—2700, downstream voltage—1000. These conditions cause unphosphorylated substrate and phosphorylated product peptide to resolve as separate peaks allowing direct measurement of percentage of conversion of substrate to product. The percent conversion can be plotted against concentration of inhibitor to produce a sigmoidal dose response curve, from which an 1050 can be calculated using XLFit for Microsoft Excel.
In the desired wells of a 384-well plate, Aurora A (0.067 ng/ul) was incubated with 15 uM ATP (the KM value), 1 mM DTT, 1 mM MgCl2, and 1 uM peptide substrate (sequence FITC-LRRASLG-(CONH2), FITC=fluorescein isothiocyanate) in 100 mM HEPES pH 7.5 and 0.015% Brij-35 buffer. The reaction was incubated for 90 min at 25 C, and then stopped by the addition of 45 ul of Stop buffer (100 mM HEPES ph 7.5, 0.015% Brij-35, 10 mM EDTA).
The plate was read in a Caliper LC 3000 in an Off-Chip mobility shift assay format, using the following parameters: screening pressure—1.8 psi, upstream voltage—2700, downstream voltage—1000. These conditions cause unphosphorylated substrate peptide to resolve as a peak before that of the phosphorylated peptide product.
In the following table “+” means >100 nM, “++” means 11-100 nM, and “+++” means <11 nM.

Row | IC50 [nM] | SMILES
1 | > 100 | CC(=O)Nc1ccc(C#Cc2ccnc3[nH]c(=O)c4ccccc4c23)cc1 [Compound 265]
2 | < 11 | COC(=O)c1ccc2c(c1)c(=O)[nH]c1nccc(Nc3ccc(NC(=O)c4ccccc4)cc3)c12 [Compound 267, Methyl 1-(4-benzamidophenylamino)-6-oxo-5,6-dihydrobenzo[c][1,8]naphthyridine-8-carboxylate]
3 | < 11 | O=C(O)c1ccc2c(c1)c(=O)[nH]c1nccc(Nc3ccc(NC(=O)c4ccccc4)cc3)c12 [Compound 268, 1-(4-Benzamidophenylamino)-6-oxo-5,6-dihydrobenzo[c][1,8]naphthyridine-8-carboxylic acid]
4 | 11 to 100 | CN1CCN(C(=O)c2ccc3c(c2)c(=O)[nH]c2nccc(Nc4ccc(NC(=O)c5ccccc5)cc4)c23)CC1 [Compound 269, N-(4-(8-(4-Methylpiperazine-1-carbonyl)-6-oxo-5,6-dihydrobenzo[c][1,8]naphthyridin-1-ylamino)phenyl)benzamide]
5 | 11 to 100 | CN(C)CCNC(=O)c1ccc2c(c1)c(=O)[nH]c1nccc(Nc3ccc(NC(=O)c4ccccc4)cc3)c12 [Compound 270, 1-(4-Benzamidophenylamino)-N-(2-(dimethylamino)ethyl)-6-oxo-5,6-dihydrobenzo[c][1,8]naphthyridine-8-carboxamide]
6 | 11 to 100 | CN1CCN(CCNC(=O)c2ccc3c(c2)c(=O)[nH]c2nccc(Nc4ccc(NC(=O)c5ccccc5)cc4)c23)CC1 [Compound 271, 1-(4-Benzamidophenylamino)-N-(2-(4-methylpiperazin-1-yl)ethyl)-6-oxo-5,6-dihydrobenzo[c][1,8]naphthyridine-8-carboxamide]
7 | < 11 | O=C(NCC(O)CO)c1ccc2c(c1)c(=O)[nH]c1nccc(Nc3ccc(NC(=O)c4ccccc4)cc3)c12 (stereo not shown) [Compound 272, 1-(4-Benzamidophenylamino)-N-(2,3-dihydroxypropyl)-6-oxo-5,6-dihydrobenzo[c][1,8]naphthyridine-8-carboxamide]
8 | 11 to 100 | CCN(CCO)Cc1ccc2c(c1)c(=O)[nH]c1nccc(Nc3ccc(NC(=O)c4ccccc4)cc3)c12 [Compound 274, N-(4-(8-((Ethyl(2-hydroxyethyl)amino)methyl)-6-oxo-5,6-dihydrobenzo[c][1,8]naphthyridin-1-ylamino)phenyl)benzamide]
9 | 11 to 100 | O=C(Nc1ccc(Nc2ccnc3[nH]c(=O)c4cc(Cl)ccc4c23)cc1)c1ccccc1 [Compound 275, N-(4-(8-Chloro-6-oxo-5,6-dihydrobenzo[c][1,8]naphthyridin-1-ylamino)phenyl)benzamide]
10 | 11 to 100 | CN1CCN(c2ccc3c(c2)c(=O)[nH]c2nccc(Nc4ccc(NC(=O)c5ccccc5)cc4)c23)CC1 [Compound 276, N-(4-(8-(4-Methylpiperazin-1-yl)-6-oxo-5,6-dihydrobenzo[c][1,8]naphthyridin-1-ylamino)phenyl)benzamide]
11 | < 11 | O=C(Nc1ccc(Nc2ccnc3[nH]c(=O)c4ccc(CO)cc4c23)cc1)c1ccccc1 [Compound 279, N-(4-(9-(Hydroxymethyl)-6-oxo-5,6-dihydrobenzo[c][1,8]naphthyridin-1-ylamino)phenyl)benzamide]
12 | < 11 | NCc1ccc2c(=O)[nH]c3nccc(Nc4ccc(NC(=O)c5ccccc5)cc4)c3c2c1 [Compound 280, N-(4-(9-(Aminomethyl)-6-oxo-5,6-dihydrobenzo[c][1,8]naphthyridin-1-ylamino)phenyl)benzamide]
13 | < 11 | O=C(O)c1ccc2c(=O)[nH]c3nccc(Nc4ccc(NC(=O)c5ccccc5)cc4)c3c2c1 [Compound 281, 1-(4-Benzamidophenylamino)-6-oxo-5,6-dihydrobenzo[c][1,8]naphthyridine-9-carboxylic acid]
14 | < 11 | NC(=O)c1ccc2c(=O)[nH]c3nccc(Nc4ccc(NC(=O)c5ccccc5)cc4)c3c2c1 [Compound 282, 1-(4-benzamidophenylamino)-6-oxo-5,6-dihydrobenzo[c][1,8]naphthyridine-9-carboxamide]
15 | 11 to 100 | CN(C)C(=O)c1ccc2c(=O)[nH]c3nccc(Nc4ccc(NC(=O)c5ccccc5)cc4)c3c2c1 [Compound 283, 1-(4-Benzamidophenylamino)-N,N-dimethyl-6-oxo-5,6-dihydrobenzo[c][1,8]naphthyridine-9-carboxamide]
16 | < 11 | NCCNC(=O)c1ccc2c(=O)[nH]c3nccc(Nc4ccc(NC(=O)c5ccccc5)cc4)c3c2c1 [Compound 284, N-(2-Aminoethyl)-1-(4-benzamidophenylamino)-6-oxo-5,6-dihydrobenzo[c][1,8]naphthyridine-9-carboxamide]
17 | < 11 | CN(C)CCNC(=O)c1ccc2c(=O)[nH]c3nccc(Nc4ccc(NC(=O)c5ccccc5)cc4)c3c2c1 [Compound 285, 1-(4-benzamidophenylamino)-N-(2-(dimethylamino)ethyl)-6-oxo-5,6-dihydrobenzo[c][1,8]naphthyridine-9-carboxamide]
18 | 11 to 100 | CN1CCN(CCNC(=O)c2ccc3c(=O)[nH]c4nccc(Nc5ccc(NC(=O)c6ccccc6)cc5)c4c3c2)CC1 [Compound 286, 1-(4-benzamidophenylamino)-N-(2-(4-methylpiperazin-1-yl)ethyl)-6-oxo-5,6-dihydrobenzo[c][1,8]naphthyridine-9-carboxamide]
19 | > 100 | CC(C(=O)Nc1ccccc1)N1CCC(Nc2ccnc3[nH]c(=O)c4ccccc4c23)CC1 (stereo not shown) [Compound 287, 2-(4-(6-oxo-5,6-dihydrobenzo[c][1,8]naphthyridin-1-ylamino)piperidin-1-yl)-N-phenylpropanamide]
20 | > 100 | CC(NC(=O)CN1CCC(Nc2ccnc3[nH]c(=O)c4ccccc4c23)CC1)c1ccccc1 (stereo not shown) [Compound 288, 2-(4-(6-Oxo-5,6-dihydrobenzo[c][1,8]naphthyridin-1-ylamino)piperidin-1-yl)-N-(1-phenylethyl)acetamide]
21 | 11 to 100 | O=C(NCCO)c1ccc2c(=O)[nH]c3nccc(Nc4ccc(NC(=O)c5ccccc5)cc4)c3c2c1 [Compound 289, 1-(4-Benzamidophenylamino)-N-(2-hydroxyethyl)-6-oxo-5,6-dihydrobenzo[c][1,8]naphthyridine-9-carboxamide]
22 | 11 to 100 | CN1CCN(C(=O)c2ccc3c(=O)[nH]c4nccc(Nc5ccc(NC(=O)c6ccccc6)cc5)c4c3c2)CC1 [Compound 290, N-(4-(9-(4-Methylpiperazine-1-carbonyl)-6-oxo-5,6-dihydrobenzo[c][1,8]naphthyridin-1-ylamino)phenyl)benzamide]
23 | < 11 | CN1CCN(Cc2ccc3c(=O)[nH]c4nccc(Nc5ccc(NC(=O)c6ccccc6)cc5)c4c3c2)CC1 [Compound 291, N-(4-(9-((4-methylpiperazin-1-yl)methyl)-6-oxo-5,6-dihydrobenzo[c][1,8]naphthyridin-1-ylamino)phenyl)benzamide]
24 | 11 to 100 | CN(C)CCN(C)Cc1ccc2c(=O)[nH]c3nccc(Nc4ccc(NC(=O)c5ccccc5)cc4)c3c2c1 [Compound 292, N-(4-(9-(((2-(Dimethylamino)ethyl)(methyl)amino)methyl)-6-oxo-5,6-dihydrobenzo[c][1,8]naphthyridin-1-ylamino)phenyl)benzamide]
25 | < 11 | O=C(Nc1ccc(Nc2ccnc3[nH]c(=O)c4ccc(Cl)cc4c23)cc1)c1ccccc1 [Compound 293, N-(4-(9-Chloro-6-oxo-5,6-dihydrobenzo[c][1,8]naphthyridin-1-ylamino)phenyl)benzamide]
